Patent EP1101492A1, “NOVEL REMEDIES FOR ALLERGIC DISEASES” (FUJI YAKUHIN KOGYO KABUSHIKI KAISHA, priority 1998, dated 2000)
Where two headings read alike, the source gives them in different places.

Experiments:
[1] = test system: peripheral blood mononuclear cells (PBMC); assay: Antibody (IgG, IgM) production by SAC/IL-2-stimulated peripheral blood mononuclear cells; assay type: cell-based; settings: Homo sapiens, 144 h, 6 days incubation; for inhibition at 0.1 µM: final concentration 0.1 µM; for inhibition at 1 µM: final concentration 1 µM; for inhibition at 10 µM: final concentration 10 µM
Method: Heparinized peripheral blood derived from a healthy person was diluted 2-fold with phosphate buffered saline (PBS) and applied to density-gradient centrifugation using Ficoll-Paque (Pharmacia Biotech) to give peripheral blood mononuclear cells (PBMC). After isolation, PBMC was rinsed with PBS, and suspended in RPMI-1640 medium (K.K. Nikken Seibutsu Igaku Kenkyujo) containing 10% heat-inactivated fetal calf serum (1 × 10^6 cells/mL), followed by addition of 0.05% Staphylococcus aureus Cowan-I (SAC, CALBIOCHEM) and 10 units/mL interleukin-2 (IL-2, Genzyme) for stimulation, as well as by simultaneous addition of Compound No. 130 (final concentration: 0.1, 1 and 10 µM). The mixtures were incubated on a 96-well microtest plate at 37°C for 6 days in an atmosphere of 95% air and 5% CO2. After incubation, supernatants were collected and quantitatively measured for IgG and IgM levels by an enzyme immunoassay (a sandwich immunoassay method using two antibodies).
IgG assay: A preparation containing 40 µg/mL anti-human IgG antibody (F(ab')2, Cappel) in 50 mM sodium carbonate-sodium bicarbonate buffer (pH 9.6) was added to each well of a 96-well microtest plate (Nunc) at a rate of 100 µL/well. The plates were allowed to stand overnight at 4°C, and then rinsed 3 times with PBS containing 0.05% Tween 20. A 4-fold dilution of BlockAce (Snow Brand Milk Products Co., Ltd.) in PBS was added to the 96-well microtest plates (300 µL/well) which were then allowed to stand overnight at 4°C, followed by rinsing similarly. Next, a culture supernatant was serially diluted with a 4-fold dilution of BlockAce in PBS and a series of dilutions were added at a rate of 100 µL/well to the 96-well microtest plates which were then allowed to stand at 25°C for 1 hour, followed by rinsing similarly. Thereafter, a 2500-fold dilution of peroxidase-labeled mouse anti-human IgG antibody (Zymed) was added at a rate of 100 µL/well to the 96-well microtest plates which were then allowed to stand at 25°C for 1 hour, followed by rinsing similarly. A coloring kit for peroxidase (Sumitomo Bakelite) was added at a rate of 100 µL/well to each well which was subjected to an enzyme reaction for 15 to 30 minutes at room temperature, followed by addition of 1 N hydrochloric acid at a rate of 100 µL/well. The resultant colored product was measured for an optical density (OD) at 450 nm for a test wavelength and at 650 nm for a reference wavelength in a microplate reader. IgG levels are calculated using a calibration curve of a standard IgG.
IgM assay: The procedures for the IgG assay as aforementioned were repeated except that the anti-human IgG antibody (F(ab')2) was replaced to anti-human IgM antibody (F(ab')2, Cappel) and the peroxidase-labeled mouse anti-human IgG antibody also to peroxidase-labeled mouse anti-human IgM antibody (Zymed; 2,000-fold dilution). IgM levels are obtained in the same manner as for the IgG assay.

[2] = test system: guinea pig experimental bronchial asthma models; assay: Experimental bronchial asthma model (ovalbumin inhalation): airway resistance and asthmatic death;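 note: female Std:Hartley guinea pigs sensitized by inhaling nebulized ovalbumin once daily for 8 consecutive days, 8 to 11 animals per group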
[3] = test system: mouse contact-type (type IV) dermatitis models; assay: Type IV allergic dermatitis (oxazolone-induced auricle edema); assay type: in vivo, Balb/c mice; settings: 50 mg/mL in ethanol
Method: Mice (male, Balb/c, 6 weeks old, 20 to 25 g) were sensitized by painting a 3% solution of oxazolone (100 µL) abdominally. Six days after sensitization, a 0.5% solution of oxazolone in acetone was painted on both sides of a right ear at a dose of 10 µL to raise auricle edema. An untreated group was painted with the solvent (acetone) alone onto both sides of a left ear of the same mouse at 10 µL. At 24 hours after edema-induction, each mouse was sacrificed with ether and an equivalent each of right and left auricles was stamped out with a puncher (diameter: 6 mm). Both left and right auricle sections were measure for their weight and each percent edema was calculated (Kazuo Ouchi (Ed.), "Seibutsu Yakukagaku Jikken Koza, Ensho To Allergy (Inflammation and Allergy) I-1", 1993, Hirokawa Publishing Co., Japan) Percent Edema (%) =((Right Auricular Segment Weight - Left Auricular Segment Weight))/(Left Auricular Segment Weight)× 100 [formula]
The solvent (ethanol) alone was painted on a left auricle at the same dose (treated group). Unsensitized mice were also treated for induction similarly and then treated with the compound of the present invention, only followed by examination for the potency of the compound of the present invention on auricles (unsensitized group). The number of animals used in the test was set 4 per group. […]

[4] = read-out: IgG production of PBMC, percent inhibition
[5] = read-out: IgM production of PBMC, percent inhibition
[6] = asthmatic death due to cyanosis within several minutes after elicitation, Compound No. 130 15 mg/kg s.c., prednisolone 10 mg/kg orally, 24 and 2 hours prior to elicitation

Which results are given for CNC(=O)[C@H](Cc1ccc(NC(=N)N)cc1)NC(=O)[C@H](CC(C)C)C(CCCc1ccccc1)C(=O)NO (single isomer, unassigned) [Compound No. 130, N-[4-(N-Hydroxyamino)-2(R)-isobutyl-3(R or S)-(3-phenyltrimethylene)succinyl)-L-4'-guanidophenylalanine-N-methylamide 1 acetate]?
inhibition at 0.1 µM [1, 4]: 84.5%; inhibition at 0.1 µM [1, 5]: 32.9%; inhibition at 1 µM [1, 4]: 96.1%; inhibition at 1 µM [1, 5]: 68.1%; inhibition at 10 µM [1, 4]: 96%; inhibition at 10 µM [1, 5]: 63.4%; airway resistance (FIG. 12) ([2]; 15 mg/kg s.c. 24 hours and 2 hours prior to elicitation, IAR 1 hour, LAR 6 hours post-elicitation): significant reduction of the increased airway resistance; % Mortality [2, 6]: 0.0%; (Dead Animals)/(Tested Animals) [2, 6]: 0/10; development of auricle edemas (FIG. 13) ([3]; 10 µL per side painted on right auricle 0.5 hr prior to and 6 hours after edema-induction, 24 hours after induction): amelioration of auricle edemas; effect of the compound alone on auricles (FIG. 13) ([3]; unsensitized mice, 10 µL per side painted twice): almost free of swelling and/or thinning
